Results as given in patent US20040014681A1, “Method for treating dermatoses and tissue damage” (priority 2002, published 2004).

Columns and labels:
[1] = Case examples: topical treatment of poison ivy lesions; format: in vivo, human; conditions: Case 4, young person, poison ivy lesions on back, once a day application
Method: (§1) The following non-limiting case examples are presented to further illustrate the present invention: In the following examples, unless otherwise stated, the ointment contained about 0.15-0.22 mg of topiramate per ml of ointment (Thermaderm, an aqueous vanishing cream emollient) and sodium bicarbonate in an amount to provide a pH of about 7.8-8.
Case 3: Poison Ivy—A young child with known sensitivity to poison ivy presents with typical raised red vesicular lesions on their hands and left forearm. Topiramate cream/ointment was applied daily with the disappearance of lesions after 3 days.
Case 4: Poison Ivy—A young person having a history of extreme sensitivity to poison ivy presented with the entire right lower quadrant of their back covered with red, vesicular, and oozing lesions. These lesions cleared after four days of once a day application of Topiramate, at which time the application was stopped, leaving the skin dry with dead scales/scabs. The patient was seen four days later in this condition and began to apply Topirmate cream/lotion ever other day with complete resolution over the next six days.

[2] = adjunctive therapy or monotherapy; cited from earlier work
[3] = several rodent models of epilepsy and an animal model of kindled epilepsy; cited from earlier work
[4] = Case examples: topical treatment of contact dermatitis to jewelry; format: in vivo, human; conditions: Case 5, adult, recurring red oozing dermatitis under gold and stone ring
Method: as §1
Case 5: Contact dermatitis to jewelry. […] This was usually treated with topical 0.1% mometasone furoate once daily for six or seven days with clearing of the lesion.
Case 6. Contact dermatitis to jewelry. An adult presented with a recurring red oozing dermatitis under a tight fitting silver/gold stone bracelet on their left wrist occurring especially during the winter and usually treated with topical corticosteroids over a five day period. Topiramate cream/ointment was applied daily with complete clearing in two days.

**Q.** Which “time until lesions cleared” value [1] does the source give for `CC1(C)O[C@@H]2[C@@H](CO[C@@]3(COS(N)(=O)=O)OC(C)(C)O[C@@H]23)O1` [topiramate, 2,3:4,5-bis-O-(1-methylethylidence)-β-D-fructopyranose sulfamate] here?
**A.** The value was “four”.

**Q.** And the “efficacy in clinical trials of human epilepsy” value [2]?
**A.** The value was “effective as adjunctive therapy or as monotherapy”.

**Q.** And the block of seizures [3]?
**A.** The block of seizures was “effectively block seizures”.

**Q.** With `C[C@@H]1C[C@H]2[C@@H]3CCC4=CC(=O)C=C[C@]4(C)[C@@]3(Cl)[C@@H](O)C[C@]2(C)[C@@]1(OC(=O)c1ccco1)C(=O)CCl` [mometasone furoate] as the compound, how does the “time until clearing of the lesion” value [4] read?
**A.** The value was “six or seven”.
